Data: patent US9828379B2 (priority 2013, dated 2017)

How the values were obtained:
Assay in all cases: In vitro competitive activity-based protein profiling (Table 2, % inhibition at 1 μM)
Type in all cases: biochemical
[1] = target: T1, FAAH (Mus musculus, UniProt O08914); conditions: read-out: % Inhibition at 1 μM FAAH
T1 sequence (O08914 1-579): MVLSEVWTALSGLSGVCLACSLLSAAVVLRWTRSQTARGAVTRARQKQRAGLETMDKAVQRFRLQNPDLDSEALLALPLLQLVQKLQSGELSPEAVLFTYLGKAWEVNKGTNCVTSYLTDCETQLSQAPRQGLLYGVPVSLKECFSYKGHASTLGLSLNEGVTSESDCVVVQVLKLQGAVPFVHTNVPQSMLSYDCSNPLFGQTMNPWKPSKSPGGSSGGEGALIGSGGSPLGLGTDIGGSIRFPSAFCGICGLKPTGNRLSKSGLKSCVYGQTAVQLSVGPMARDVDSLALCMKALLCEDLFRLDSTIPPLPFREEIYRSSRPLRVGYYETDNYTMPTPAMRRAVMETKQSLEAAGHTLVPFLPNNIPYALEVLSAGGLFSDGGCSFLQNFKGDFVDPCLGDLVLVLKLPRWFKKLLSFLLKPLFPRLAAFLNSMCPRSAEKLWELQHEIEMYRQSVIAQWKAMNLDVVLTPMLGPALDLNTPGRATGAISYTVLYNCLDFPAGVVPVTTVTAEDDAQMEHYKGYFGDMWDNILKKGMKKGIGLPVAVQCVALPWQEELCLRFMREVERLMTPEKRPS
Protocol: (§1) After 30 min, FP—Rh (1.0 μL, 50 μM in DMSO) was added and the mixture was incubated for another 30 min at 37° C. Reactions were quenched with SDS loading buffer (50 μL-4×) and run on SDS-PAGE. Following gel imaging, serine hydrolase activity was determined by measuring fluorescent intensity of gel bands corresponding to MAGL, ABHD6 and FAAH using ImageJ 1.43 u software.
(§2) hMAGL was expressed in HEK293T cells according to previously reported methods (see Niphakis, Long, and Blankman, J. L., et al. (2007) Chem. Biol. 14:1347-1356). Cell lysates were diluted with mock proteomes for use in competitive ABPP experiments.

[2] = target: T2, ABHD6 (Mus musculus, UniProt Q8R2Y0); conditions: read-out: % Inhibition at 1 μM ABHD6
T2 sequence (Q8R2Y0 1-336): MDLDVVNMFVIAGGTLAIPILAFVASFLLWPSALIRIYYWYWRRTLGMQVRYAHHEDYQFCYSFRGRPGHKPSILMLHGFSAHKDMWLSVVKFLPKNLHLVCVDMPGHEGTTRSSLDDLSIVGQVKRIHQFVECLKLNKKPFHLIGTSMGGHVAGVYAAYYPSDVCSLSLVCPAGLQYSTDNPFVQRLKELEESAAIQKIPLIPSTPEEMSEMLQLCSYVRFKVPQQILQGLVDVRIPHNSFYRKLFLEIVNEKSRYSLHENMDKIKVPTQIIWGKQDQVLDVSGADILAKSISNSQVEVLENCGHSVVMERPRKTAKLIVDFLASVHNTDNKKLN
Protocol: as §1, §2

[3] = target: T3, MAGL (Mus musculus, UniProt O35678); conditions: read-out: % Inhibition at 1 μM MAGL
T3 sequence (O35678 1-303): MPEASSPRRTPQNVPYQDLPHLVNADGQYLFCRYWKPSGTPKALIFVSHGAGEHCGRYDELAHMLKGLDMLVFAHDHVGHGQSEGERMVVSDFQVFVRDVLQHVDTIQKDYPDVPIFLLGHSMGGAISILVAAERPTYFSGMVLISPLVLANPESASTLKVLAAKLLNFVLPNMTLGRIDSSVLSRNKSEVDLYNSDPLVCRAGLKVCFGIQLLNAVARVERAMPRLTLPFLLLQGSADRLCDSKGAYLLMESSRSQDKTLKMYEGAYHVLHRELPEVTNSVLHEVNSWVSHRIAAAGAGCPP
Protocol: After 30 min, FP—Rh (1.0 μL, 50 μM in DMSO) was added and the mixture was incubated for another 30 min at 37° C. Reactions were quenched with SDS loading buffer (50 μL-4×) and run on SDS-PAGE.
Cell lysates were diluted with mock proteomes for use in competitive ABPP experiments.

Row | Compound | inhibition at 1 µM [1] [%] | inhibition at 1 µM [2] [%] | inhibition at 1 µM [3] [%]
1 | O=C(ON1C(=O)CCC1=O)N1CC2CN(Cc3ccc(F)cc3N3CCCC3)CC2C1 (stereo not drawn) [Example 90, 2,5-Dioxopyrrolidin-1-yl 5-[[4-fluoro-2-(pyrrolidin-1-yl)phenyl]methyl]-octahydropyrrolo[3,4-c]pyrrole-2-carboxylate] | 25 to 75 | < 25 | 25 to 75
2 | Cc1cccc(-c2cc(CN3CC4CN(C(=O)ON5C(=O)CCC5=O)CC4C3)n(C)n2)c1 (stereo not drawn) [Example 199, 2,5-dioxopyrrolidin-1-yl 5-((1-methyl-3-(m-tolyl)-1H-pyrazol-5-yl)methyl)hexahydropyrrolo[3,4-c]pyrrole-2(1H)-carboxylate] | < 25 | < 25 | 25 to 75
3 | CCN1CCN(c2c(C)cccc2CN2CC3CN(C(=O)ON4C(=O)CCC4=O)CC3C2)CC1 (stereo not drawn) [Example 139, 2,5-dioxopyrrolidin-1-yl 5-[[2-(4-ethylpiperazin-1-yl)-3-methylphenyl]methyl]-octahydropyrrolo[3,4-c]pyrrole-2-carboxylate] | < 25 | < 25 | < 25
4 | CC(=O)N1CCC(c2nn(C)cc2CN2CC3CN(C(=O)ON4C(=O)CCC4=O)CC3C2)CC1 (stereo not drawn) [Example 116, 2,5-Dioxopyrrolidin-1-yl 5-[[3-(1-acetylpiperidin-4-yl)-1-methyl-1H-pyrazol-4-yl]methyl]-octahydropyrrolo[3,4-c]pyrrole-2-carboxylate] | < 25 | < 25 | < 25
5 | O=C(OC(C(F)(F)F)C(F)(F)F)N1CC2CN(Cc3ccc(F)cc3N3CCOCC3)CC2C1 (stereo not drawn) [Example 14, 1,1,1,3,3,3-Hexafluoropropan-2-yl 5-[[4-fluoro-2-(morpholin-4-yl)phenyl]methyl]-octahydropyrrolo[3,4-c]pyrrole-2-carboxylate] | 25 to 75 | < 25 | > 75
6 | O=C(ON1C(=O)CCC1=O)N1CC2CN(Cc3ccc(C(=O)N4CCC4)cc3Cl)CC2C1 (stereo not drawn) [Example 165, 2,5-dioxopyrrolidin-1-yl5-(4-(azetidine-1-carbonyl)-2-chlorobenzyl)-hexahydropyrrolo[3,4-c]pyrrole-2(1H)-carboxylate] | < 25 | < 25 | 25 to 75
7 | CS(=O)(=O)N1CCN(c2cc(Cl)ccc2CN2CC3CN(C(=O)ON4C(=O)CCC4=O)CC3C2)CC1 (stereo not drawn) [Example 110, 2,5-Dioxopyrrolidin-1-yl 5-[[4-chloro-2-(4-methanesulfonylpiperazin-1-yl)phenyl]methyl]-octahydropyrrolo[3,4-c]pyrrole-2-carboxylate] | < 25 | < 25 | < 25
8 | O=C(ON1C(=O)CCC1=O)N1CC2CN(Cc3ccc(F)cc3N3CCOCC3)CC2C1 (stereo not drawn) [Example 89, 2,5-Dioxopyrrolidin-1-yl 5-[[4-fluoro-2-(morpholin-4-yl)phenyl]methyl]-octahydropyrrolo[3,4-c]pyrrole-2-carboxylate] | < 25 | < 25 | < 25
9 | O=C(ON1C(=O)CCC1=O)N1CC2CN(Cc3ccc(C(=O)N4CCCC4)cc3Cl)CC2C1 (stereo not drawn) [Example 164, 2,5-dioxopyrrolidin-1-yl 5-(2-chloro-4-(pyrrolidine-1-carbonyl)benzyl)-hexahydropyrrolo[3,4-c]pyrrole-2(1H)-carboxylate] | < 25 | 25 to 75 | 25 to 75
10 | Cc1cccc(CN2CC3CN(C(=O)ON4C(=O)CCC4=O)CC3C2)c1N1CCCCC1 (stereo not drawn) [Example 105, 2,5-Dioxopyrrolidin-1-yl 5-[[3-methyl-2-(piperidin-1-yl)phenyl]methyl]-octahydropyrrolo[3,4-c]pyrrole-2-carboxylate] | < 25 | < 25 | 25 to 75
11 | CC(=O)N1CCC(c2nn(C(C)C)cc2CN2CC3CN(C(=O)ON4C(=O)CCC4=O)CC3C2)CC1 (stereo not drawn) [Example 119, 2,5-Dioxopyrrolidin-1-yl 5-[[3-(1-acetylpiperidin-4-yl)-1-(propan-2-yl)-1H-pyrazol-4-yl]methyl]-octahydropyrrolo[3,4-c]pyrrole-2-carboxylate] | < 25 | < 25 | < 25
12 | O=C(ON1C(=O)CCC1=O)N1CC2CN(Cc3ccc(Cl)cc3N3CCn4ncnc4C3)CC2C1 (stereo not drawn) [Example 108, 2,5-Dioxopyrrolidin-1-yl 5-(4-chloro-2-(5,6-dihydro-[1,2,4]triazolo[1,5-a]pyrazin-7(8H)-yl)benzyl)-hexahydropyrrolo[3,4-c]pyrrole-2(1H)-carboxylate] | < 25 | < 25 | < 25
13 | Cc1c(CN2CC3CN(C(=O)ON4C(=O)CCC4=O)CC3C2)cccc1N1CCN(S(C)(=O)=O)CC1 (stereo not drawn) [Example 141, 2,5-dioxopyrrolidin-1-yl 5-[[3-(4-methanesulfonylpiperazin-1-yl)-2-methylphenyl]methyl]-octahydropyrrolo[3,4-c]pyrrole-2-carboxylate] | < 25 | < 25 | 25 to 75
14 | CCn1cc(CN2CC3CN(C(=O)OC(C(F)(F)F)C(F)(F)F)CC3C2)c(-c2ccc(N3CCOCC3)cc2)n1 (stereo not drawn) [Example 68, 1,1,1,3,3,3-Hexafluoropropan-2-yl 5-([1-ethyl-3-[4-(morpholin-4-yl)phenyl]-1H-pyrazol-4-yl]methyl)-octahydropyrrolo[3,4-c]pyrrole-2-carboxylate] | < 25 | < 25 | > 75
15 | O=C(ON1C(=O)CCC1=O)N1CC2CN(Cc3ccc(Cl)cc3N3CCOCC3)CC2C1 (stereo not drawn) [Example 93, 2,5-Dioxopyrrolidin-1-yl 5-[[4-chloro-2-(morpholin-4-yl)phenyl]methyl]-octahydropyrrolo[3,4-c]pyrrole-2-carboxylate] | < 25 | 25 to 75 | 25 to 75
16 | CC1COCCN1c1cc(Cl)ccc1CN1CC2CN(C(=O)ON3C(=O)CCC3=O)CC2C1 (stereo not drawn) [Example 95, 2,5-Dioxopyrrolidin-1-yl 5-[[4-chloro-2-(3-methylmorpholin-4-yl)phenyl]methyl]-octahydropyrrolo[3,4-c]pyrrole-2-carboxylate] | < 25 | < 25 | 25 to 75
17 | O=C(ON1C(=O)CCC1=O)N1CC2CN(Cc3ccc(C(=O)N4CCCCC4)cc3Cl)CC2C1 (stereo not drawn) [Example 161, 2,5-dioxopyrrolidin-1-yl 5-([2-chloro-4-[(piperidin-1-yl)carbonyl]phenyl]methyl)-octahydropyrrolo[3,4-c]pyrrole-2-carboxylate] | 25 to 75 | 25 to 75 | 25 to 75
18 | O=C(OC(C(F)(F)F)C(F)(F)F)N1CC2CN(C(c3ccc(Cl)cc3)c3ccc(Cl)cc3)CC2C1 (stereo not drawn) [Example 8, 1,1,1,3,3,3-Hexafluoropropan-2-yl 5-[bis(4-chlorophenyl)methyl]-octahydropyrrolo[3,4-c]pyrrole-2-carboxylate] | < 25 | 25 to 75 | 25 to 75
